Assay results published in ChEMBL document CHEMBL1201862, “PubChem BioAssay data set” (2004).
Calls of active or inactive are those of the source.

Experiments:
BJ [1] = test: cytotoxicity toward BJ-TERT fibroblasts, dose response, cell-based, RAS-independent, luminescence (AID 1933); assay type: functional; conditions: Homo sapiens
BJ [2] = test: cells; assay type: functional, cell-based; conditions: Homo sapiens
BJ [3] = test: cytotoxicity toward BJ-TERT-LT-ST fibroblasts, dose response, cell-based, RAS-independent, luminescence (AID 1935); assay type: functional; conditions: Homo sapiens;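 further: BJ fibroblasts immortalized with TERT plus LT and ST oncogenes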
[4] = cytotoxicity toward DRD oncogenic fibroblasts, dose response, cell-based, non-viral oncogenic, luminescence (AID 1934); assay type: functional; conditions: Homo sapiens
Insulin-degrading enzyme [5] = target: T1, Insulin-degrading enzyme (Homo sapiens, UniProt P14735); test: activators of recombinant IDE enzyme, dose response, counter-screen for IDE activator project, biochemical, fluorescence polarization (AID 588681)
T1 sequence (P14735 whole entry): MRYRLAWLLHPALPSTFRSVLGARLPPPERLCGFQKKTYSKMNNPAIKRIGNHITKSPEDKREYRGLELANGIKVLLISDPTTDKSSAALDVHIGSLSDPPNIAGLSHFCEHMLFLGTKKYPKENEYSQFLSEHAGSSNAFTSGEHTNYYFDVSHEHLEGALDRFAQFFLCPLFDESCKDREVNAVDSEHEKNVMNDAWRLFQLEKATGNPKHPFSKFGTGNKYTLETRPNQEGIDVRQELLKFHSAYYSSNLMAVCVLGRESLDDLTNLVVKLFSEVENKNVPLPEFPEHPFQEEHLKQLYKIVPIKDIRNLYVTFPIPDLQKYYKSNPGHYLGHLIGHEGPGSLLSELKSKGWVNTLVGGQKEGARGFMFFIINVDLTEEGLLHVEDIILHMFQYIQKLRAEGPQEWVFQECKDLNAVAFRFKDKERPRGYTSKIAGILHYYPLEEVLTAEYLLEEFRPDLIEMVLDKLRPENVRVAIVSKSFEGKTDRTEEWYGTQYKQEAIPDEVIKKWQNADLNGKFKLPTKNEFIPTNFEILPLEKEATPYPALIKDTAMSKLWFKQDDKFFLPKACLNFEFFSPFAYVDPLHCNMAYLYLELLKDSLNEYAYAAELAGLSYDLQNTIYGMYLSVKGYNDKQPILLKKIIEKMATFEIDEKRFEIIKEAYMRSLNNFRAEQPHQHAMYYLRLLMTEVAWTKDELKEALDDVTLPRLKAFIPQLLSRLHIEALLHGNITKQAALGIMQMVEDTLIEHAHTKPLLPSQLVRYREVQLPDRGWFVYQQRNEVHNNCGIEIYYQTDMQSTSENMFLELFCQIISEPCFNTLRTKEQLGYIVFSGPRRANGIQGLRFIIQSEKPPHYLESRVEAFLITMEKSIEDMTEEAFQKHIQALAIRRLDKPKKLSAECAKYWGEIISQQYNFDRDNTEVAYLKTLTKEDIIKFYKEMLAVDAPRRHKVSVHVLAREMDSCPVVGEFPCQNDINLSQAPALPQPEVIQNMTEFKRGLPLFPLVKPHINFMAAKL

Insulin-degrading enzyme [6] = target: T1, Insulin-degrading enzyme; test: activators of endogenous IDE in HEK cells, dose response, cell-based, fluorescence polarization (AID 588439); assay type: functional
HEK293 [7] = test: HEK cell cytotoxicity by LDH release, dose response, cytotoxicity control for IDE activator project, fluorescence, HEK cells (AID 588440); assay type: functional, cell-based; conditions: Homo sapiens;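 further: cytotoxicity by LDH release measuring loss of membrane integrity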
HEK293 [8] = test: optical interference in Abeta FP readout, dose response, artefact control for IDE activator project, biochemical, fluorescence polarization (AID 588442); assay type: functional, cell-based; conditions: Homo sapiens
[9] = AlphaScreen signal interference compounds, dose response, artefact control for ARNT-TACC3 interaction inhibitor project, biochemical, luminescence, cherry-pick (AID 651705); assay type: functional;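 further: AlphaScreen bead proximity signal that flags compounds interfering with the detection technology; potency reflects signal decrease which marks the compound as an assay artifact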
[10] = target: DNA dC->dU-editing enzyme APOBEC-3G (Homo sapiens, UniProt Q9HC16); test: APOBEC3G deaminase inhibitors, SAR follow-up, biochemical, fluorescence, single-stranded DNA substrate (AID 602136); assay type: functional; conditions: read-out: IC50_Mean
DNA dC->dU-editing enzyme APOBEC-3G, sequence (Q9HC16 whole entry): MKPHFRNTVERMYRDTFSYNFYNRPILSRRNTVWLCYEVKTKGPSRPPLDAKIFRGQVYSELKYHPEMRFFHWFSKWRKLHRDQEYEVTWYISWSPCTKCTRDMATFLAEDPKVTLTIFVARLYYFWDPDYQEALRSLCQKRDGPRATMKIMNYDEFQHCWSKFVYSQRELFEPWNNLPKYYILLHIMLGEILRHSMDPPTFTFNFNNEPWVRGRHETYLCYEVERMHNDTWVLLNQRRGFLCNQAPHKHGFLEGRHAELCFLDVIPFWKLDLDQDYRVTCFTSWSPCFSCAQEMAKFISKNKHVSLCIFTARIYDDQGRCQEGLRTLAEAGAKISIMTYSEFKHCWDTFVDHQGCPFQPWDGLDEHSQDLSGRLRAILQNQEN

[11] = target: DNA dC->dU-editing enzyme APOBEC-3A (Homo sapiens, UniProt P31941); test: SAR analysis of small molecule inhibitors of APOBEC3A DNA Deaminase via a fluorescence-based single-stranded DNA deaminase assay.; assay type: functional; conditions: read-out: IC50_Mean
DNA dC->dU-editing enzyme APOBEC-3A, sequence (P31941 whole entry): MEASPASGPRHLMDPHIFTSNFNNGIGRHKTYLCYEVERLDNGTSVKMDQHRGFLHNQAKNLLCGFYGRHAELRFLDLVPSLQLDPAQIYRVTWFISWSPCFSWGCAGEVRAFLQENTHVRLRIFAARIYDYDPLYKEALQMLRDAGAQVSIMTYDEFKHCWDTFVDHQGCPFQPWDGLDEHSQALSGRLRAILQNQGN

Structure (SMILES)	EC50 (BJ [1])	EC50 (BJ [2])	EC50 (BJ [3])	EC50 [4]	EC50 (Insulin-degrading enzyme [5])	EC50 (Insulin-degrading enzyme [6])	IC50 (HEK293 [7])	EC50 (HEK293 [8])	AC50 [9]	IC50 [10]	IC50 [11]
CCN(CC)c1ccc(/C=N/N=C(N)N)c(O)c1	1.47 µM (active)	2.16 µM (active)	1.51 µM (inconclusive)	1.19 µM (active)	> 54.7 µM (inactive)	> 54.7 µM (inactive)	> 89.2 µM (inactive)	> 54.7 µM (inactive)	115 µM (active)	–	–
Fc1ccc(Nc2nc(Nc3ccc(Cl)c(Cl)c3)nc(N3CCOCC3)n2)cc1	–	–	–	–	–	–	–	–	–	> 99 µM (inactive)	> 99 µM (inactive)
